Paper PMC11062922 (Nature Chemical Biology, 2023)

Tests used:
[1] = system: AGK; experiment: Kinobeads competition binding: AGK; set-up: species or system human; details: target AGK
[2] = system: MTOR; experiment: Kinobeads competition binding: MTOR; set-up: species or system human; details: target MTOR
[3] = target: T1, CSNK1G3 (Homo sapiens, UniProt Q9Y6M4); experiment: Kinobeads competition binding: CSNK1G3; details: target CSNK1G3;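 also: share of total target engagement due to this protein at one drug concentration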
T1 construct: endogenous in cells
From the text: Supplement 41589_2023_1459_MOESM4_ESM.xlsx, sheet "CATDS matrix" | column: CSNK1G3

[4] = target: T2, CDK7 (Homo sapiens, UniProt P50613); experiment: Kinobeads competition binding: CDK7; details: target CDK7
T2 construct: endogenous in cells

[5] = system: DDR2; experiment: Kinobeads competition binding: DDR2; set-up: species or system human; details: target DDR2;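 also: target engagement share of this target among all targets at its Kdapp concentration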
[6] = system: MDN1; experiment: Kinobeads competition binding: MDN1; set-up: species or system human; details: target MDN1
[7] = system: IRAK4; experiment: Kinobeads competition binding: IRAK4; set-up: species or system human; details: target IRAK4
[8] = system: MARK2; experiment: Kinobeads competition binding: MARK2; set-up: species or system human; details: target MARK2
[9] = system: EIF2AK1; experiment: Kinobeads competition binding: EIF2AK1; set-up: species or system human; details: target EIF2AK1;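 also: share of total target engagement due to this protein at one drug concentration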
[10] = target: T3, PAK6 (Homo sapiens, UniProt Q9NQU5); experiment: Kinobeads competition binding: PAK6; details: target PAK6
T3 construct: a mixture of lysates from five cancer cell lines; endogenous in cells

[11] = system: MAP2K6; experiment: Kinobeads competition binding: MAP2K6; set-up: species or system human; details: target MAP2K6
[12] = target: T4, PIK3CA (Homo sapiens, UniProt P42336); experiment: Kinobeads competition binding: PIK3CA; details: target PIK3CA;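 also: share of all-target engagement taken by this protein at its own Kdapp concentration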
T4 construct: a mixture of lysates from five cancer cell lines; endogenous in cells
From the text: Supplement 41589_2023_1459_MOESM4_ESM.xlsx, sheet "CATDS matrix" | column: PIK3CA

[13] = target: T5, PIK3CD (Homo sapiens, UniProt O00329); experiment: Kinobeads competition binding: PIK3CD; details: target PIK3CD
T5 construct: a mixture of lysates from five cancer cell lines; endogenous in cells

[14] = target: T6, AXL (Homo sapiens, UniProt P30530); experiment: Kinobeads competition binding: AXL; details: target AXL
T6 construct: endogenous in cells
T6 sequence (P30530 26-894): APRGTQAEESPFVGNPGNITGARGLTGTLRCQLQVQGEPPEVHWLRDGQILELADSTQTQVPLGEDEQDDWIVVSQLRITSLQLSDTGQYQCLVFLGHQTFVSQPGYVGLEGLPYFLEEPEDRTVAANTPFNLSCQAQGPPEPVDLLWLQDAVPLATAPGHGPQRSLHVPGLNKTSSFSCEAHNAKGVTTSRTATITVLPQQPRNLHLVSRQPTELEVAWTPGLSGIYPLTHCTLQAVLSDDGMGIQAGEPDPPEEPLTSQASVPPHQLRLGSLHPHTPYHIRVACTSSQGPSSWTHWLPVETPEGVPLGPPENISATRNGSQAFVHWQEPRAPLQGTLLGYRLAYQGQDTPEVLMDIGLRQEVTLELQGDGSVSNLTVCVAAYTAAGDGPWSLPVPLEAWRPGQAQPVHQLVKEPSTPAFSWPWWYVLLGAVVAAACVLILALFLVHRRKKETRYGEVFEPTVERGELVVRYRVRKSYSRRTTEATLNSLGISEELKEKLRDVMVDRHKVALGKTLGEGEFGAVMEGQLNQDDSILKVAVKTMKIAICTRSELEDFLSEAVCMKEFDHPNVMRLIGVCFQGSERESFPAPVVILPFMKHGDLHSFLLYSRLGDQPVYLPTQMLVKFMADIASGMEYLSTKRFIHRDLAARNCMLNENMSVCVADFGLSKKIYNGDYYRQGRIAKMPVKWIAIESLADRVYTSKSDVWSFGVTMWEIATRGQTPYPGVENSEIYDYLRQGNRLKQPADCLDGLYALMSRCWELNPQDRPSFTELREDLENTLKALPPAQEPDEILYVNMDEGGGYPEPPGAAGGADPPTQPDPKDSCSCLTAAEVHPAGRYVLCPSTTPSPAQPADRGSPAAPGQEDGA
From the text: Supplement 41589_2023_1459_MOESM4_ESM.xlsx, sheet "CATDS matrix" | column: AXL

[15] = system: PIK3C2A; experiment: Kinobeads competition binding: PIK3C2A; set-up: species or system human; details: target PIK3C2A;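 also: share of all-target engagement taken by this protein at its own Kdapp concentration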
[16] = target: ADCK3 (Homo sapiens, UniProt Q8NI60); experiment: Kinobeads competition binding: ADCK3; set-up: endogenous in cells; details: target ADCK3
[17] = system: DNAJA1; experiment: Kinobeads competition binding: DNAJA1; set-up: species or system human; details: target DNAJA1;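 also: share of total target engagement due to this protein at one drug concentration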
[18] = system: DDR1; experiment: Kinobeads competition binding: DDR1; set-up: species or system human; details: target DDR1
[19] = target: ABL1 (Homo sapiens, UniProt P00519); experiment: Kinobeads competition binding: ABL1; details: target ABL1;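 also: selectivity score: engagement of this protein divided by summed engagement of all targets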
From the text: Supplement 41589_2023_1459_MOESM4_ESM.xlsx, sheet "CATDS matrix" | column: ABL1

[20] = system: MAP4K1; experiment: Kinobeads competition binding: MAP4K1; set-up: species or system human; details: target MAP4K1
[21] = system: CDC42; experiment: Kinobeads competition binding: CDC42; set-up: species or system human; details: target CDC42
[22] = system: CAMK4; experiment: Kinobeads competition binding: CAMK4; set-up: species or system human; details: target CAMK4;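 also: selectivity score: engagement of this protein divided by summed engagement of all targets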
[23] = system: MAP2K2; experiment: Kinobeads competition binding: MAP2K2; set-up: species or system human; details: target MAP2K2

Sequence of ABL1 (P00519 28-1130 limits assumed): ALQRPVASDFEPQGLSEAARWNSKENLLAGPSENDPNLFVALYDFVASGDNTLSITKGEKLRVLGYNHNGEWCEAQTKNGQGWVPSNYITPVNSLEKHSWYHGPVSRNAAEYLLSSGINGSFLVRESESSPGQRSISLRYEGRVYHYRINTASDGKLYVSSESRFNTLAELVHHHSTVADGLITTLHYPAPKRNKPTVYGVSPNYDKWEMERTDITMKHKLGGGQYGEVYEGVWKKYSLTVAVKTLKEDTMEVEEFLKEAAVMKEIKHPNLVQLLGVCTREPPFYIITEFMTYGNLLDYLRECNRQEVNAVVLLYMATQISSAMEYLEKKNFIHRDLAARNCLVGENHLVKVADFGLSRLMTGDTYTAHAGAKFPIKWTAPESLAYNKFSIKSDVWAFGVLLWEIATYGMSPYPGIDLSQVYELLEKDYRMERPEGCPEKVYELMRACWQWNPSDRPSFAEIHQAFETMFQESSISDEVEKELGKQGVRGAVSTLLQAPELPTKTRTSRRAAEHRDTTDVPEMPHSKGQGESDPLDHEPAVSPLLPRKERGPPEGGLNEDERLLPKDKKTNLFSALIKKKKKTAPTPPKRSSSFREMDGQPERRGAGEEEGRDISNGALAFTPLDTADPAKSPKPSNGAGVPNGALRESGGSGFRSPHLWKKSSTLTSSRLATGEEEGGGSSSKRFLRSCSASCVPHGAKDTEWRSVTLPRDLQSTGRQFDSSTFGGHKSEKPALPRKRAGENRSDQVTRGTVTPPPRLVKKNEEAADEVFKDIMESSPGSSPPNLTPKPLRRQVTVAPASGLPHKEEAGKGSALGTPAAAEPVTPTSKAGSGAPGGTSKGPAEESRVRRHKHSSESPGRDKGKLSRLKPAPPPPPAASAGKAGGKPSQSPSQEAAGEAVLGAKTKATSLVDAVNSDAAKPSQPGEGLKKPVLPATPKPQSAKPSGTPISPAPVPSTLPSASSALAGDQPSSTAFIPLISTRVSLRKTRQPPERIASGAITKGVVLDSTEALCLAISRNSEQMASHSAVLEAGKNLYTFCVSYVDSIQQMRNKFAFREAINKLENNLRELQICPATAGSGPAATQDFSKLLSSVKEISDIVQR
Sequence of ADCK3 (Q8NI60 163-647): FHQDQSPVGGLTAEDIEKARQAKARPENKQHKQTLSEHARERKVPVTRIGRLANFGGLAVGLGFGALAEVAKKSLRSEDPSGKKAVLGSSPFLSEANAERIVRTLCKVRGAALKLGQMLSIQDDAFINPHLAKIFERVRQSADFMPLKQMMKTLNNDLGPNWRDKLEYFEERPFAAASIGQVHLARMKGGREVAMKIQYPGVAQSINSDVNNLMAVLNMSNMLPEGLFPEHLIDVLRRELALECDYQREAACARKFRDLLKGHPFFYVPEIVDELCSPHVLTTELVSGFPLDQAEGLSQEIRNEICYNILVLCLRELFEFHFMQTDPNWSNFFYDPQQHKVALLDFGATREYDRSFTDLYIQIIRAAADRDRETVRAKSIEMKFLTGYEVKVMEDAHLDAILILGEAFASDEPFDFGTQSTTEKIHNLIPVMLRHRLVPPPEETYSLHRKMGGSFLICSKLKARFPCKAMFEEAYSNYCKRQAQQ
T5 sequence (O00329 whole entry): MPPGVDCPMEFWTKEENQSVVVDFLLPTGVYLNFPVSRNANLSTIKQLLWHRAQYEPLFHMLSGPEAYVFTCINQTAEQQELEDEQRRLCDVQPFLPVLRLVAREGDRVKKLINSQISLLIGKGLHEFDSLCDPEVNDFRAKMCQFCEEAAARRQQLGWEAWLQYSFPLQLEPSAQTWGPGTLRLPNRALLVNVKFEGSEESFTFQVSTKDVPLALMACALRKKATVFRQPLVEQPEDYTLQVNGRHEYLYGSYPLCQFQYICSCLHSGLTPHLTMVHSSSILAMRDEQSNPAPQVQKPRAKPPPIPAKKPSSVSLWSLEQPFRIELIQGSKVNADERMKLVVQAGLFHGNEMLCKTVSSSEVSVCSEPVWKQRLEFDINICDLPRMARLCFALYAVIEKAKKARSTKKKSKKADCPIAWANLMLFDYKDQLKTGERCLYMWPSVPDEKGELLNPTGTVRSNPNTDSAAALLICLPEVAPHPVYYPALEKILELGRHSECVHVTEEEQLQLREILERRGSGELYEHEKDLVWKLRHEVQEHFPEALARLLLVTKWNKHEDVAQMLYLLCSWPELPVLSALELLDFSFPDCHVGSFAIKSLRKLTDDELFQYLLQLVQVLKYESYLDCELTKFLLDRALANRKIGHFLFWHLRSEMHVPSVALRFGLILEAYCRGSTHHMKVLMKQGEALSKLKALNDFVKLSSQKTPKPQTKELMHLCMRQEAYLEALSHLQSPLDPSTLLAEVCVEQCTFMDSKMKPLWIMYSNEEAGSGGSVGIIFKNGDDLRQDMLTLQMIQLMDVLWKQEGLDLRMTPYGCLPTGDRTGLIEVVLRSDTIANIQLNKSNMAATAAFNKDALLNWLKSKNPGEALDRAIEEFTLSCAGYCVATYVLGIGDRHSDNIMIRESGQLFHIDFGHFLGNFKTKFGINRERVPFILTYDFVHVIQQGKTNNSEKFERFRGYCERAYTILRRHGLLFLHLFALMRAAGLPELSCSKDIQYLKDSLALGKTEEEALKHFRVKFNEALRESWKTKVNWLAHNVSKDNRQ
T5 sequence (P27986 whole entry partner): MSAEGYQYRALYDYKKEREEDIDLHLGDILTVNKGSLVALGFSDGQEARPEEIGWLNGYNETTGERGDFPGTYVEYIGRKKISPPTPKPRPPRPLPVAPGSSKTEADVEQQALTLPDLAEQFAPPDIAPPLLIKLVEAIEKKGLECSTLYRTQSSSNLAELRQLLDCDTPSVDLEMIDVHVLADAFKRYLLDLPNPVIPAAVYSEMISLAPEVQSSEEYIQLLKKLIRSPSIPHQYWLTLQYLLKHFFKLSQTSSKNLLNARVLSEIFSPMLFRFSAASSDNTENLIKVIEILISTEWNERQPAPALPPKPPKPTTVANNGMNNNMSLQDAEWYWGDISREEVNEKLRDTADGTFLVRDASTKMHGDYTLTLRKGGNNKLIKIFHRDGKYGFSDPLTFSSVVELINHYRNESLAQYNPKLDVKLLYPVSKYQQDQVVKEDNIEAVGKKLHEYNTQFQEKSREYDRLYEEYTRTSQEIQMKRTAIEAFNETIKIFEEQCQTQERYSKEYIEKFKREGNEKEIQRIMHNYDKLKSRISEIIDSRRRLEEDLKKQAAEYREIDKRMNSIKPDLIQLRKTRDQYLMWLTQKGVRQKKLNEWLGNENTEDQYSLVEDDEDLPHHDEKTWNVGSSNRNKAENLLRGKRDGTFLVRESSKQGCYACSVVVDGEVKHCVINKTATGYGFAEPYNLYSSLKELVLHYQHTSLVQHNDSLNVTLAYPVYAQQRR
T3 sequence (Q9NQU5 whole entry): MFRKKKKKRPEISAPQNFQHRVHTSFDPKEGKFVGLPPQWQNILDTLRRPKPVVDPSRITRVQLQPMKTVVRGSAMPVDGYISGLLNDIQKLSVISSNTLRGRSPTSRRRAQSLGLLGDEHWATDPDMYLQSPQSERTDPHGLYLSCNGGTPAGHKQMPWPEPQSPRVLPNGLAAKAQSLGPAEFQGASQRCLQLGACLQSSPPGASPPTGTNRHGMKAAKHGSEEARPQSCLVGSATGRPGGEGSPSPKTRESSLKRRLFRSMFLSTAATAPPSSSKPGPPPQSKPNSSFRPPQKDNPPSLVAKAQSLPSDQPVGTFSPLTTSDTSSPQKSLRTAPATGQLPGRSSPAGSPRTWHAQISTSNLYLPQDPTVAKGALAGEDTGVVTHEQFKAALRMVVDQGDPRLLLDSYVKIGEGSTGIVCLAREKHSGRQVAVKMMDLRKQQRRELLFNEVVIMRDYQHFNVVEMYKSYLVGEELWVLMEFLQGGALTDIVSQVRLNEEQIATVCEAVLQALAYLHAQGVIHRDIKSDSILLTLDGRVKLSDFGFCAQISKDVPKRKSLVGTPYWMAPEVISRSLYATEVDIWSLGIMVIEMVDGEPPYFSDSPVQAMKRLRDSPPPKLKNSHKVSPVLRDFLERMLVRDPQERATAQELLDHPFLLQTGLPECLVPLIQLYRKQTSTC
T2 sequence (P50613 whole entry): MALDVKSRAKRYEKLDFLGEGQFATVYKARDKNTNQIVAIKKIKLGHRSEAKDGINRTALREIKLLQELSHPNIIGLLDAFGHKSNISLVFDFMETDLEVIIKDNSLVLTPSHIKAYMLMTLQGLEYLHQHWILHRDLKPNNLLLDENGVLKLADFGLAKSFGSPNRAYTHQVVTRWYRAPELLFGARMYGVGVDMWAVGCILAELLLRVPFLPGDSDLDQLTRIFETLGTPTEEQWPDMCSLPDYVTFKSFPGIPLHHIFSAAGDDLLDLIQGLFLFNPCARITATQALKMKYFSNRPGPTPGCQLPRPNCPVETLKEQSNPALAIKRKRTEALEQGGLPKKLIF
T1 sequence (Q9Y6M4 whole entry): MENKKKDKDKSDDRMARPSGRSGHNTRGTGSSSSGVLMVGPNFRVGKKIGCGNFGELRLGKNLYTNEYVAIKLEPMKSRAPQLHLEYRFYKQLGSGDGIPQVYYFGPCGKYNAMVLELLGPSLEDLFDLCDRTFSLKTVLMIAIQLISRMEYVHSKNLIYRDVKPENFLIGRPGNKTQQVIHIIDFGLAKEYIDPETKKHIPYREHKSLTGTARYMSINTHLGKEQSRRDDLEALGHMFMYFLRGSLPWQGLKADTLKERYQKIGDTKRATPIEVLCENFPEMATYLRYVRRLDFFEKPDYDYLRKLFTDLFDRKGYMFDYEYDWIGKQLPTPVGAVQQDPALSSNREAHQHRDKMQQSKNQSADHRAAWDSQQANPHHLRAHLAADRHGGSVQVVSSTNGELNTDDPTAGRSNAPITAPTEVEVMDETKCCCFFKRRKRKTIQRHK

Row | SMILES | CATDS [1] | CATDS [2] | CATDS [3] | CATDS [4] | CATDS [5] | CATDS [6] | CATDS [7] | CATDS [8] | CATDS [9] | CATDS [10] | CATDS [11] | CATDS [12] | CATDS [13] | CATDS [14] | CATDS [15] | CATDS [16] | CATDS [17] | CATDS [18] | CATDS [19] | CATDS [21] | other results
1 | CCc1cc2c(cc1N1CCC(N3CCOCC3)CC1)C(C)(C)c1[nH]c3cc(C#N)ccc3c1C2=O [Alectinib] | 0 | 0 | 0 | 0 | 0 | 0 | 0 | 0 | 0 | 0 | 0 | 0 | 0 | 0 | 0 | 0 | 0 | 0 | 0 | 0 | CATDS [20]: 0; CATDS [22]: 0; CATDS [23]: 0
2 | CN(C)C/C=C/C(=O)Nc1cc2c(Nc3ccc(F)c(Cl)c3)ncnc2cc1O[C@H]1CCOC1 [Afatinib] | 0 |  | 0 |  |  | 0 |  |  |  |  |  | 0 |  | 0 | 0 |  | 0 |  | 0 | 0 | 
3 | Nc1ncnc2[nH]c(-c3ccccc3)nc12 [AH5015_KCGS] | 0 | 0 | 0 | 0.1088 | 0 | 0 | 0 | 0 | 0 | 0 | 0 | 0 | 0.05532 | 0 | 0 | 0 | 0 | 0 | 0 | 0 | CATDS [20]: 0; CATDS [22]: 0; CATDS [23]: 0
4 | CCN1CCN(Cc2ccc(Nc3ncc(F)c(-c4cc(F)c5nc(C)n(C(C)C)c5c4)n3)nc2)CC1 [Abemaciclib] | 0 | 0 | 0 | 0 | 0 | 0 | 0 | 0 | 0 | 0 | 0 | 0 | 0 | 0 | 0 | 0 | 0 | 0 | 0 | 0 | CATDS [20]: 0; CATDS [22]: 0; CATDS [23]: 0
5 | N#CC1(c2ccc(NC(=O)c3cccnc3NCc3ccncc3)cc2)CCCC1 [Apatinib] | 0 | 0 | 0 | 0 | 0 | 0 | 0 | 0 | 0 | 0 | 0 | 0 | 0 | 0 | 0 | 0 | 0 | 0 | 0 | 0 | CATDS [20]: 0; CATDS [22]: 0; CATDS [23]: 0
